Experimental findings from ChEMBL document CHEMBL5523759, “Discovery of Novel HDAC3 Inhibitors with PD-L1 Downregulating/Degrading and Antitumor Immune Effects” (J Med Chem, 2024) are described below.

Activity calls are given as the source filed them. The calls are words filed in the database; no cut-off is given here.

Data set [1] concerns the target T1, Histone deacetylase 3 (Mus musculus) (UniProt O88895).
T1 sequence (whole entry): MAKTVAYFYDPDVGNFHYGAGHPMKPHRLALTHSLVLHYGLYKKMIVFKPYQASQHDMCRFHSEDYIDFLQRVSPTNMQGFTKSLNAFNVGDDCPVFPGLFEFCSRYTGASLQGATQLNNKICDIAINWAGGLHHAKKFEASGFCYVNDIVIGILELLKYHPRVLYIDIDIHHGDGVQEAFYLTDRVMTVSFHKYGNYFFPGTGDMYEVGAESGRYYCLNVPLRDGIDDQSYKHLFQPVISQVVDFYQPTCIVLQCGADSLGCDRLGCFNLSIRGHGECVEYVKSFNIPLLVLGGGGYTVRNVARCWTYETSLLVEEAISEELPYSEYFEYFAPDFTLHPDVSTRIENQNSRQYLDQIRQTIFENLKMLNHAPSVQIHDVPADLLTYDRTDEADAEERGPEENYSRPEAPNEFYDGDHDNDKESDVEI
Briefly: Inhibition of HDAC3 in mouse B16-F10 cells assessed as upregulation of acetylated H3 level at 1 to 2 uM measured for 24 hrs by Western blot analysis. Type of data set: cell-based. Particulars: dose 1-2 µM.

In data set [2] the target is T1, Histone deacetylase 3 (Mus musculus). Briefly: Inhibition of HDAC3 in mouse B16-F10 cells assessed as decrease in PD-L1 level measured for 24 hrs by Western blot analysis. Type of data set: cell-based. Particulars: dose 1-2 µM.
Data set [3] deals with Programmed cell death 1 ligand 1 (Mus musculus) (UniProt Q9EP73). Briefly: Induction of PD-L1 degradation in mouse B16-F10 cells at 10 uM measured for 24 hrs by Western blot analysis relative to control. Type of data set: cell-based.
Chain of Programmed cell death 1 ligand 1 (Mus musculus) (Q9EP73 whole entry): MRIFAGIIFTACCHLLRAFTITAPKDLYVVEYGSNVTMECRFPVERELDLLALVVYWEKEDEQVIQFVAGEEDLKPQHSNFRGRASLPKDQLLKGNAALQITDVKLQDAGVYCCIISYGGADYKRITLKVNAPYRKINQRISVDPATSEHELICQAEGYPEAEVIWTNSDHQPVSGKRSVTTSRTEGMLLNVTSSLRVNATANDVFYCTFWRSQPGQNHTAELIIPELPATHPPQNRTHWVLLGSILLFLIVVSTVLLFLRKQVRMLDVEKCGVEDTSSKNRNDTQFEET
The target is the same in data set [4]. In words: Induction of PD-L1 degradation in mouse B16-F10 cells 0.5 to 10 uM measured for 4 hrs in presence of MG132 by Western blot analysis. Type of data set: cell-based. The conditions noted are these: dose 0.5-10 µM.
Data set [5] is described as follows: AUC (0 to t) in Sprague-Dawley rat at 2 mg/kg, iv measured up to 12 hrs by LC-MS/MS analysis. The class given is ADME, organism-based. The conditions noted are these: in vivo.
A short description of data set [6]: AUC (0 to t) in Sprague-Dawley rat at 20 mg/kg, po measured up to 12 hrs by LC-MS/MS analysis. Particulars: in vivo. The class given is ADME, organism-based.
Data set [7] in a line: MRT (0 to infinity) in Sprague-Dawley rat at 2 mg/kg, iv measured up to 12 hrs by LC-MS/MS analysis. Type of data set: ADME, organism-based. The conditions noted are these: in vivo.
Data set [8] can be described thus: Half life in Sprague-Dawley rat at 20 mg/kg, po measured up to 12 hrs by LC-MS/MS analysis. The class given is ADME, organism-based. The conditions noted are these: in vivo.
Data set [9] in a line: Tmax in Sprague-Dawley rat at 20 mg/kg, po measured up to 12 hrs by LC-MS/MS analysis. Type of data set: ADME, organism-based. Particulars: in vivo.
A short description of data set [10]: Clearance in Sprague-Dawley rat at 2 mg/kg, iv measured up to 12 hrs by LC-MS/MS analysis. The class given is ADME, organism-based. The conditions noted are these: in vivo.
A short description of data set [11]: Apparent volume of distribution in Sprague-Dawley rat at 2 mg/kg, iv measured up to 12 hrs by LC-MS/MS analysis. The class given is ADME, organism-based. Particulars: in vivo, read-out: Vz.
The nature of data set [12]: Cmax in Sprague-Dawley rat at 20 mg/kg, po measured up to 12 hrs by LC-MS/MS analysis. The conditions noted are these: in vivo. The class given is ADME, organism-based.
A short description of data set [13]: Metabolic stability in mouse liver microsome assessed as parent compound remaining measured immediately. Type of data set: ADME. The conditions noted are these: liver microsomes, read-out: Stability.
The nature of data set [14]: Metabolic stability in mouse liver microsome assessed as parent compound remaining measured at 15 mins. Type of data set: ADME. Particulars: liver microsomes, read-out: Stability.
A short description of data set [15]: Metabolic stability in rat liver microsome assessed as parent compound remaining measured at 30 mins. Type of data set: ADME. The conditions noted are these: liver microsomes, read-out: Stability.
The nature of data set [16]: Metabolic stability in rat liver microsome assessed as half life. Particulars: liver microsomes. The class given is ADME.
Data set [17] can be described thus: Metabolic stability in mouse liver microsome assessed as intrinsic clearance. Particulars: liver microsomes, read-out: CLH. Type of data set: ADME.
Data set [18] has as its system B16-F10. Briefly: Antitumor activity against mouse B16-F10 cells implanted in C57BL/6 mouse model assessed as reduction in tumor volume at 25 mg/kg, IG administered for 9 days. Type of data set: functional, organism-based. The conditions noted are these: time 9.0 day.
The nature of data set [19]: Toxicity in C57BL/6 mouse implanted with mouse B16-F10 cells assessed as body weight loss at 25 mg/kg, po administered for 9 days. The class given is organism-based. Particulars: in vivo, 216 h, time 9 day.
A short description of data set [20]: Toxicity in C57BL/6 mouse implanted with mouse B16-F10 cells assessed as spleen damage at 25 mg/kg, po administered for 9 days by H and E staining based analysis. Type of data set: organism-based. The conditions noted are these: in vivo, 216 h, time 9 day.
Data set [21] deals with Histone deacetylase 3 (Homo sapiens, UniProt O15379). In words: Inhibition of human recombinant HDAC3 using Ac-Leu-Gly-Lys (Ac)-AMC as substrate preincubated with compound for 10 mins followed by substrate addition and measured after 45 mins by TECAN microtiter plate reader analysis.
Chain of Histone deacetylase 3 (O15379 whole entry): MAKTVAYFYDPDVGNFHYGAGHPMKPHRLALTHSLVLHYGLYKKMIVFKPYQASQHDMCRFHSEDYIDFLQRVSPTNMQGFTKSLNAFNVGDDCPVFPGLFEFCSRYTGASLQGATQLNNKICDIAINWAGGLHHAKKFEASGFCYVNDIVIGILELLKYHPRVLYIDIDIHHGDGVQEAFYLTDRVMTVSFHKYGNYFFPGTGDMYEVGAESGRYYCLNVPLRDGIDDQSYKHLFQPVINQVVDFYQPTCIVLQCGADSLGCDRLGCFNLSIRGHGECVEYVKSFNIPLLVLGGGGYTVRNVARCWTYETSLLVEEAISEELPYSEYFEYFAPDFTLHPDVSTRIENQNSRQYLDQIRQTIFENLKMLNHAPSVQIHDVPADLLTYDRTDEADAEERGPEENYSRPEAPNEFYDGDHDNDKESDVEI
Data set [22] has as its target T1, Histone deacetylase 3 (Mus musculus). In words: Inhibition of HDAC3 in mouse B16-F10 cells assessed as upregulation of acetylated H3 level at 2 uM measured for 24 hrs by Western blot analysis. The class given is cell-based.

In the case of `CCCNNC(=O)c1ccc(CNC(=O)c2ncc(CNc3ccccc3)s2)cc1`, in data set [1], the inhibition entry was “Active”. Also, the inhibition result in data set [2] is “Dose-Dependent Effect”. The compound also gave an Emax in [3] of 80%. Moreover, the outcome in data set [4] and in data set [18] was Active. For the same compound, the AUC(0-t) at 12 h in data set [5] was determined as 522 ng·h/mL; in [6] it was 2740 ng·h/mL. The same compound returned an MRT inf in data set [7] of 33 min. Also, the half-life in data set [8] is 216 min; in data set [16] it was 23.7 min. The Tmax in [9] came to 30 min. In data set [10], this compound gave a clearance of 64.5 mL/min/kg. Also, the Vd in data set [11] turned out to be 2.21 L/kg. Moreover, the Cmax in [12] amounted to 1040 ng/mL. Besides, the remaining at 0 min in data set [13] was 100%. Further, the remaining at 0.25 h in [14] was 31.6%. In addition, the remaining at 0.5 h in [15] came out at 38.5%. For the same compound, the CLint scaled in data set [17] was 563 mL/min/kg. Moreover, the Activity result in [19] and in [20] was “Non-Toxic” in each case.

Take `Nc1ccccc1NC(=O)c1ccc(-c2ncc(CNc3ccccc3)s2)cc1`: in [21], the IC50 was found to be 66 nM. Besides, the inhibition entry in data set [22] was “Active”.
